{"source": "ChEMBL document CHEMBL1649549", "about": "“Stability of peroxide antimalarials in the presence of human hemoglobin” (Antimicrob Agents Chemother, 2009)", "key": {"[1]": {"experiment": "Stability of compound in presence of […] assessed as pseudo-first order degradation rate constant at 10 uM at 20degC over 24 hrs", "type": "ADME"}, "[2]": {"experiment": "Stability of compound in presence of oxyhemoglobin assessed as pseudo-first order degradation rate constant at 10 uM at 20degC over 24 hrs", "type": "ADME"}, "[3]": {"experiment": "Stability of compound in presence water assessed as pseudo-first order degradation rate constant at 10 uM at 20degC over 24 hrs", "type": "physicochemical", "conditions": "buffer"}}}
{"smiles": "O=C(O)C[C@H]1CC[C@]2(CC1)OO[C@]1(O2)C2CC3CC(C2)CC1C3", "values": [{"measurement": "Activity", "setting": "[1]", "value": 0.006, "unit": "h⁻¹"}, {"measurement": "Activity", "setting": "[2]", "value": 0.01, "unit": "h⁻¹"}, {"measurement": "Activity", "setting": "[3]", "value": 0.006, "unit": "h⁻¹"}]}
{"smiles": "CO[C@H]1O[C@@H]2O[C@@]3(C)CC[C@H]4[C@H](C)CC[C@@H]([C@H]1C)[C@@]24OO3", "note": "[ARTEMETHER]", "values": [{"measurement": "Activity", "setting": "[1]", "value": 0.002, "unit": "h⁻¹"}, {"measurement": "Activity", "setting": "[2]", "value": 0.007, "unit": "h⁻¹"}, {"measurement": "Activity", "setting": "[3]", "value": 0.002, "unit": "h⁻¹"}]}
{"smiles": "C[C@@H]1CC[C@H]2[C@@H](C)C(=O)O[C@@H]3O[C@@]4(C)CC[C@@H]1[C@]32OO4", "note": "[ARTEMISININ]", "values": [{"measurement": "Activity", "setting": "[1]", "value": 0.003, "unit": "h⁻¹"}, {"measurement": "Activity", "setting": "[2]", "value": 0.008, "unit": "h⁻¹"}, {"measurement": "Activity", "setting": "[3]", "value": 0.0004, "unit": "h⁻¹"}]}
{"smiles": "C[C@H]1[C@@H](O)O[C@@H]2O[C@@]3(C)CC[C@H]4[C@H](C)CC[C@@H]1[C@@]24OO3", "note": "[ARTENIMOL]", "values": [{"measurement": "Activity", "setting": "[1]", "value": 0.004, "unit": "h⁻¹"}, {"measurement": "Activity", "setting": "[2]", "value": 0.017, "unit": "h⁻¹"}, {"measurement": "Activity", "setting": "[3]", "value": 0.00001, "unit": "h⁻¹"}]}
{"smiles": "CC(C)(N)CNC(=O)C[C@H]1CC[C@]2(CC1)OO[C@]1(O2)C2CC3CC(C2)CC1C3", "note": "[OZ277]", "values": [{"measurement": "Activity", "setting": "[1]", "value": 0.013, "unit": "h⁻¹"}, {"measurement": "Activity", "setting": "[2]", "value": 0.01, "unit": "h⁻¹"}, {"measurement": "Activity", "setting": "[3]", "value": 0.015, "unit": "h⁻¹"}]}
